The record followed here is PubChem BioAssay (NCI).

Some test systems named below: UO-31 renal; BT-549 breast; HL-60(TB) leukemia; OVCAR-4 ovarian; NCI/ADR-RES ovarian; HS 578T breast; CAKI-1 renal; T-47D breast.
What all share (experiment): inhibition of tumour cell growth, NCI panel, 48 h

Structures are written as SMILES.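 48-hour exposure; five concentrations; linearly interpolated endpoints. GI50: concentration for 50% inhibition of growth. TGI: total growth inhibition.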 Where a SMILES comes first, the peptide text is derived from it. [ ]: non-standard residue; d: D form. Bounds are passed on as bounds.

Consider `COC(=O)[C@@H](C)C[C@H](Cc1ccccc1)NC(=O)c1csc([C@@H](C[C@H](C(C)C)N(C)C(=O)[C@@H](NC(=O)[C@H]2CCCCN2C)C(C(F)(F)F)C(F)(F)F)OC(C)=O)n1`, for which the GI50 is 0.224 µM with UO-31 renal; 0.054 µM in the assay with BT-549 breast; 0.0134 µM in the assay on HL-60(TB) leukemia; 0.309 µM in the assay with OVCAR-4 ovarian; 0.346 µM with NCI/ADR-RES ovarian; 0.047 µM with HS 578T breast. Also, the TGI in the assay with UO-31 renal is over 16.7 µM; in the assay on BT-549 breast it was 0.779 µM; in the assay on HL-60(TB) leukemia, 0.115 µM; in the assay with OVCAR-4 ovarian, over 16.7 µM; in the assay on NCI/ADR-RES ovarian, over 16.7 µM; in the assay with HS 578T breast, 15.4 µM.

`C=C(CN1CCN(c2ccc(F)c(Cl)c2)CC1)c1ccc(C(=O)Nc2ccccc2N)cc1`: the GI50 is 2.28 µM in the assay on UO-31 renal; 3.51 µM with BT-549 breast; 1.64 µM in the assay on HL-60(TB) leukemia; 4.12 µM in the assay with CAKI-1 renal; over 100 µM in the assay on OVCAR-4 ovarian; 2.01 µM in the assay with NCI/ADR-RES ovarian. In addition, the GI50 was over 100 µM in the assay with T-47D breast and 7.39 µM with HS 578T breast. For the same compound, the TGI in the assay with UO-31 renal was 12.1 µM; with BT-549 breast it was 26.5 µM; with HL-60(TB) leukemia, 4.31 µM; with CAKI-1 renal, 77.8 µM; in the assay on OVCAR-4 ovarian, over 100 µM; with NCI/ADR-RES ovarian, 5.09 µM. In addition, the TGI in the assay on T-47D breast and with HS 578T breast was over 100 µM in each case.

Turning to `O=C1CC2OCC=C3CN4CCC5(C(=O)O)C(N1)C2C3CC45` (configuration not stated), the TGI with UO-31 renal, in the assay with BT-549 breast, in the assay on HL-60(TB) leukemia, with CAKI-1 renal, with OVCAR-4 ovarian and in the assay with NCI/ADR-RES ovarian was over 100 µM each time. Further, the TGI in the assay with T-47D breast and in the assay with HS 578T breast was over 100 µM throughout.

In the case of `COC(=N)CCCl`, the TGI in the assay on UO-31 renal, in the assay on BT-549 breast, in the assay on HL-60(TB) leukemia, with CAKI-1 renal, with OVCAR-4 ovarian and with NCI/ADR-RES ovarian was over 100 µM in each case.

On to `c1ccc(-c2cc3n4c(-c5ccccc5)nn(-c5ccccc5)c4cnc-3n2)cc1`, for which the GI50 is over 50 µM in the assay on UO-31 renal; 48.6 µM in the assay with BT-549 breast; over 50 µM in the assay with HL-60(TB) leukemia; 15.1 µM in the assay with CAKI-1 renal; 31.3 µM in the assay with OVCAR-4 ovarian; over 50 µM with NCI/ADR-RES ovarian. In addition, the GI50 with HS 578T breast is 9.62 µM. For the same compound, the TGI in the assay on UO-31 renal, with BT-549 breast, in the assay with HL-60(TB) leukemia, in the assay with CAKI-1 renal, in the assay on OVCAR-4 ovarian and with NCI/ADR-RES ovarian was over 50 µM each time. The TGI with HS 578T breast is over 50 µM.

Regarding `CC(=O)OC1=C(CC(C)(C)C)C(=O)c2ccccc2C1=O`, the TGI with UO-31 renal is over 100 µM; in the assay with HL-60(TB) leukemia, 44.5 µM; with CAKI-1 renal, over 100 µM; in the assay on OVCAR-4 ovarian, over 100 µM; with NCI/ADR-RES ovarian, 85.3 µM; in the assay with T-47D breast it was over 100 µM. The TGI in the assay with HS 578T breast worked out at 50.5 µM.

Turning to `CC(=O)/C(=C/N1CCN(C(=O)c2ccco2)C1=S)C(=O)c1ccccc1`, the GI50 in the assay on UO-31 renal was 8.8 µM; with BT-549 breast it was 5.54 µM; in the assay with HL-60(TB) leukemia, 8.19 µM; in the assay with CAKI-1 renal, 9.29 µM; with OVCAR-4 ovarian it was 20.1 µM; with T-47D breast, 4.29 µM. Further, the TGI with UO-31 renal was 18.1 µM; in the assay on BT-549 breast, 18.1 µM; in the assay on HL-60(TB) leukemia, 19.3 µM; in the assay on CAKI-1 renal it was 32.5 µM; in the assay on OVCAR-4 ovarian, 37.4 µM; with T-47D breast, over 50 µM.

Regarding `CC(C)OP(=O)(OC(C)C)/C(C#N)=C/c1c[nH]c2ccccc12`, the TGI is 89.3 µM with BT-549 breast; over 100 µM in the assay on HL-60(TB) leukemia; over 100 µM in the assay with CAKI-1 renal; over 100 µM in the assay on OVCAR-4 ovarian; over 100 µM in the assay with NCI/ADR-RES ovarian; over 100 µM with T-47D breast. The TGI in the assay with HS 578T breast is over 100 µM.

Take `CSCC[C@H](NC(=O)[C@@H](N)CC(N)=O)C(=O)N[C@@H](Cc1c[nH]c2ccccc12)C(=O)N[C@@H](CCC(N)=O)C(=O)N[C@@H](CCC(=O)O)C(=O)N[C@H](C(=O)NCC(=O)N[C@@H](CCCCN)C(=O)N[C@H](C)C(=O)O)C(C)C` (H-NMWQEVGK[dA]-OH): the TGI with HL-60(TB) leukemia, in the assay on CAKI-1 renal, in the assay on OVCAR-4 ovarian, with NCI/ADR-RES ovarian, with T-47D breast and with HS 578T breast was over 100 µM each time.

Turning to `O=[N+]([O-])c1ccc2nc(-c3ccc(Cl)cc3)[nH]c2c1`, the TGI is 59.7 µM in the assay on UO-31 renal; 64.6 µM in the assay on BT-549 breast; 93.9 µM in the assay with CAKI-1 renal; over 100 µM in the assay on OVCAR-4 ovarian; 57.6 µM in the assay with NCI/ADR-RES ovarian; 55.7 µM in the assay on T-47D breast. Further, the TGI in the assay with HS 578T breast was determined as 71.7 µM.

Turning to `CCSc1nc(N)c2cnn(CC)c2n1`, the GI50 was 7.24 µM in the assay on UO-31 renal; 2.33 µM in the assay on HL-60(TB) leukemia; 4.63 µM in the assay on CAKI-1 renal; 49 µM in the assay with OVCAR-4 ovarian; 18.5 µM in the assay on NCI/ADR-RES ovarian; 17.3 µM in the assay with T-47D breast. Moreover, the GI50 in the assay with HS 578T breast is 4.19 µM. Further, the TGI was over 100 µM in the assay on UO-31 renal; 32.5 µM in the assay with HL-60(TB) leukemia; 56.3 µM with CAKI-1 renal; over 100 µM with OVCAR-4 ovarian; 63.3 µM with NCI/ADR-RES ovarian; over 100 µM in the assay on T-47D breast. The TGI in the assay with HS 578T breast turned out to be 26 µM.

For `C=Cc1cc(OC)c2c(c1)c(=O)oc1c2cc(OC)c2c(O)ccc(C3OC(C(C)O)C(O)C3O)c21` (configuration not stated), the GI50 in the assay on UO-31 renal was 0.00262 µM; with BT-549 breast it was 0.00769 µM; in the assay on HL-60(TB) leukemia, 0.00216 µM; with OVCAR-4 ovarian, 0.053 µM; in the assay on NCI/ADR-RES ovarian, 0.012 µM; in the assay with T-47D breast it was 0.00812 µM. In addition, in the assay on HS 578T breast, the GI50 is 0.0191 µM. The TGI with UO-31 renal was determined as 0.0399 µM; in the assay on BT-549 breast it was 0.0391 µM; in the assay with HL-60(TB) leukemia, 0.0197 µM; with OVCAR-4 ovarian, 0.703 µM; in the assay on NCI/ADR-RES ovarian, 0.271 µM; with T-47D breast it was 0.08 µM. The compound further had a TGI in the assay on HS 578T breast of 0.0617 µM.

`O=C1/C(=C/c2ccc(O)cc2)Oc2ccccc21`: the TGI in the assay with BT-549 breast was over 100 µM; in the assay with HL-60(TB) leukemia, 92.9 µM; in the assay with CAKI-1 renal, over 100 µM; in the assay on OVCAR-4 ovarian, over 100 µM; in the assay on NCI/ADR-RES ovarian, over 100 µM; in the assay with T-47D breast, over 100 µM. In the assay with HS 578T breast, this compound came in with a TGI of over 100 µM.

For the compound `CCCC(=O)OC(OC(=O)CCC)c1ccc([N+](=O)[O-])o1`, the TGI in the assay with UO-31 renal is 56.7 µM; in the assay on BT-549 breast, over 100 µM; in the assay with HL-60(TB) leukemia it was 88.3 µM; with CAKI-1 renal, 38.4 µM; with NCI/ADR-RES ovarian it was over 100 µM; with T-47D breast, 61.5 µM. In the assay on HS 578T breast, this compound showed a TGI of over 100 µM.
